Measurements as given in the NIST ThermoML archive (doi:10.1016/j.fluid.2015.03.025).
Numbers after ± are expanded uncertainties.

Test: xn = mol fraction of the nth substance listed
Conditions: 101 kPa, Liquid; for mass density: Buoyancy - hydrostatic balance; for electrical conductivity: Alternating current cell with electrodes; for viscosity: Capillary tube (Ostwald / Ubbelohde) method

O=C(O)C(=O)O [ethanedioic acid] + C[N+](C)(C)CCO.[Cl-]
mass density (300.15 K, x2 = 0.5): 1160.6 ± 0.93 kg/m3 | electrical conductivity (303.05 K, x2 = 0.5): 0.483 ± 0.008 S/m | viscosity (303.15 K, x2 = 0.5): 119.4 ± 2.1 mPa·s | mass density (304.15 K, x2 = 0.5): 1158.66 ± 0.93 kg/m3 | electrical conductivity (308.15 K, x2 = 0.5): 0.56 ± 0.008 S/m | viscosity (308.15 K, x2 = 0.5): 101.1 ± 1.6 mPa·s | electrical conductivity (312.75 K, x2 = 0.5): 0.638 ± 0.008 S/m | mass density (312.75 K, x2 = 0.5): 1153.06 ± 0.92 kg/m3 | viscosity (313.15 K, x2 = 0.5): 82.7 ± 1.2 mPa·s | electrical conductivity (317.55 K, x2 = 0.5): 0.727 ± 0.008 S/m | mass density (318.15 K, x2 = 0.5): 1150.57 ± 0.91 kg/m3 | viscosity (318.15 K, x2 = 0.5): 60.2 ± 0.8 mPa·s | electrical conductivity (323.15 K, x2 = 0.5): 0.808 ± 0.008 S/m | mass density (323.15 K, x2 = 0.5): 1148.23 ± 0.91 kg/m3 | viscosity (323.15 K, x2 = 0.5): 43.7 ± 0.7 mPa·s | electrical conductivity (328.15 K, x2 = 0.5): 0.886 ± 0.008 S/m | viscosity (328.15 K, x2 = 0.5): 37 ± 0.7 mPa·s | mass density (328.65 K, x2 = 0.5): 1146.23 ± 0.91 kg/m3 | electrical conductivity (333.15 K, x2 = 0.5): 0.981 ± 0.008 S/m | viscosity (333.15 K, x2 = 0.5): 31.9 ± 0.7 mPa·s | mass density (334.15 K, x2 = 0.5): 1142.66 ± 0.9 kg/m3 | electrical conductivity (343.15 K, x2 = 0.5): 1.144 ± 0.008 S/m | mass density (343.15 K, x2 = 0.5): 1137.16 ± 0.89 kg/m3 | viscosity (343.15 K, x2 = 0.5): 20.1 ± 0.6 mPa·s | viscosity (348.15 K, x2 = 0.5): 16.8 ± 0.6 mPa·s | mass density (348.65 K, x2 = 0.5): 1135.11 ± 0.89 kg/m3 | electrical conductivity (353.15 K, x2 = 0.5): 1.288 ± 0.008 S/m | mass density (353.15 K, x2 = 0.5): 1133.19 ± 0.89 kg/m3 | viscosity (353.15 K, x2 = 0.5): 14.3 ± 0.6 mPa·s

OCCN(CCO)CCO [triethanolamine] + C[N+](C)(C)CCO.[Cl-]
electrical conductivity (312.75 K, x2 = 0.5): 0.013 ± 0.008 S/m | mass density (313.15 K, x2 = 0.5): 1044.2 ± 0.34 kg/m3 | viscosity (313.15 K, x2 = 0.5): 83 ± 1 mPa·s | electrical conductivity (317.55 K, x2 = 0.5): 0.008 ± 0.008 S/m | viscosity (318.15 K, x2 = 0.5): 64.8 ± 0.8 mPa·s | mass density (318.25 K, x2 = 0.5): 1042.56 ± 0.34 kg/m3 | electrical conductivity (323.15 K, x2 = 0.5): 0.008 ± 0.008 S/m | viscosity (323.15 K, x2 = 0.5): 44.9 ± 0.7 mPa·s | mass density (323.25 K, x2 = 0.5): 1040.96 ± 0.34 kg/m3 | electrical conductivity (328.15 K, x2 = 0.5): 0.013 ± 0.008 S/m | viscosity (328.15 K, x2 = 0.5): 39.9 ± 0.7 mPa·s | mass density (328.35 K, x2 = 0.5): 1039.12 ± 0.34 kg/m3 | electrical conductivity (333.15 K, x2 = 0.5): 0.007 ± 0.008 S/m | viscosity (333.15 K, x2 = 0.5): 33 ± 0.6 mPa·s | mass density (333.25 K, x2 = 0.5): 1037.41 ± 0.34 kg/m3 | electrical conductivity (338.15 K, x2 = 0.5): 0.017 ± 0.008 S/m | viscosity (338.15 K, x2 = 0.5): 27.2 ± 0.6 mPa·s | mass density (338.45 K, x2 = 0.5): 1035.68 ± 0.34 kg/m3 | electrical conductivity (343.15 K, x2 = 0.5): 0.018 ± 0.008 S/m | viscosity (343.15 K, x2 = 0.5): 21.3 ± 0.6 mPa·s | mass density (343.25 K, x2 = 0.5): 1034.09 ± 0.34 kg/m3 | electrical conductivity (348.15 K, x2 = 0.5): 0.006 ± 0.008 S/m | viscosity (348.15 K, x2 = 0.5): 18.8 ± 0.6 mPa·s | mass density (348.55 K, x2 = 0.5): 1032.59 ± 0.33 kg/m3 | mass density (350.45 K, x2 = 0.5): 1032.09 ± 0.33 kg/m3 | electrical conductivity (353.15 K, x2 = 0.5): 0.008 ± 0.008 S/m | mass density (353.15 K, x2 = 0.5): 1031.28 ± 0.33 kg/m3

C[N+](C)(C)CCO.[Cl-] [choline chloride] + OCCO
mass density (301.55 K, x1 = 0.5): 1048.21 ± 0.72 kg/m3 | electrical conductivity (303.04 K, x1 = 0.5): 0.838 ± 0.008 S/m | mass density (307.95 K, x1 = 0.5): 1046.1 ± 0.71 kg/m3 | electrical conductivity (308.15 K, x1 = 0.5): 0.917 ± 0.008 S/m | electrical conductivity (312.74 K, x1 = 0.5): 0.986 ± 0.008 S/m | mass density (313.15 K, x1 = 0.5): 1044.28 ± 0.71 kg/m3 | viscosity (313.15 K, x1 = 0.5): 25.3 ± 0.3 mPa·s | electrical conductivity (317.51 K, x1 = 0.5): 1.054 ± 0.008 S/m | mass density (317.55 K, x1 = 0.5): 1042.81 ± 0.71 kg/m3 | viscosity (318.15 K, x1 = 0.5): 21.7 ± 0.2 mPa·s | mass density (322.85 K, x1 = 0.5): 1041.05 ± 0.71 kg/m3 | electrical conductivity (323.15 K, x1 = 0.5): 1.123 ± 0.008 S/m | viscosity (323.15 K, x1 = 0.5): 18.3 ± 0.2 mPa·s | mass density (327.35 K, x1 = 0.5): 1039.36 ± 0.7 kg/m3 | electrical conductivity (328.15 K, x1 = 0.5): 1.186 ± 0.008 S/m | viscosity (328.15 K, x1 = 0.5): 16.3 ± 0.2 mPa·s | electrical conductivity (333.15 K, x1 = 0.5): 1.264 ± 0.008 S/m | viscosity (333.15 K, x1 = 0.5): 14.4 ± 0.2 mPa·s | mass density (333.25 K, x1 = 0.5): 1036.72 ± 0.7 kg/m3 | mass density (338.15 K, x1 = 0.5): 1034.68 ± 0.7 kg/m3 | viscosity (338.15 K, x1 = 0.5): 12.4 ± 0.1 mPa·s | electrical conductivity (343.15 K, x1 = 0.5): 1.414 ± 0.008 S/m | viscosity (343.15 K, x1 = 0.5): 10.5 ± 0.1 mPa·s | mass density (347.85 K, x1 = 0.5): 1030.78 ± 0.69 kg/m3 | viscosity (348.15 K, x1 = 0.5): 9.6 ± 0.1 mPa·s | electrical conductivity (353.15 K, x1 = 0.5): 1.519 ± 0.008 S/m | mass density (353.15 K, x1 = 0.5): 1028.98 ± 0.69 kg/m3 | viscosity (353.15 K, x1 = 0.5): 8.7 ± 0.1 mPa·s
